These results are taken from patent US12180207B2 (ARRAY BIOPHARMA INC., priority 2018, dated 2024).

pIC50: −log10 of the molar value.

The target in test [1] is T1, HEK-293 cells transfected with dox-inducible human wild type FGFR3 (Homo sapiens (Human), UniProt P22607). Put plainly: FGFR3 pERK cell assay. The test is classed as cell-based. The note with it: HEK-293 dox-inducible FGFR3, 1 hour compound, 100 ng/ml FGF-acidic; maximum concentration 5 μM. The method in brief:
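Doxycycline-induced cells preincubated 1 h at 37 °C with compound (1:3 dilutions, top 5 μM final), then stimulated 5 min with 100 ng/ml FGF-acidic. Lysate phospho-ERK1/2 measured by MSD sandwich assay; IC50 at 50 POC from 4-parameter fit, normalised to no-compound and control-compound wells.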

Test [2] addresses recombinant human FGFR3 (amino acids R397-T806) (Homo sapiens (Human), UniProt P22607). Briefly: FGFR3 enzyme activity assay (LanthaScreen TR-FRET). In kind it is biochemical. The note with it: 25 μM ATP, 10 min incubation at 22° C., average of multiple determinations if made, read-out: FGFR3 Enz FRET IC50. The method in brief: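 GST-HIS6-tagged human FGFR3 (R397-T806) was reacted with 100 nM Alexa Fluor 647-Poly-GT substrate and 25 μM ATP plus compound in HEPES/MgCl2/Triton buffer, pH 7.5, 2% DMSO, for 10 min at 22 °C.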
On the technique in general: In TR-FRET formats the signal depends on donor and acceptor labels being close together.

Test [3] addresses HEK-293 cells transfected with dox-inducible human wild type FGFR1 (Homo sapiens (Human), UniProt P11362). Put plainly: FGFR1 pERK cell assay. In kind it is cell-based. To be noted: HEK-293 dox-inducible FGFR1, 1 hour compound, 100 ng/ml FGF-acidic; maximum concentration 5 μM. The method in brief: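 In HEK-293 cells with dox-induced human wild-type FGFR1, compounds (1:3 dilutions, top 5 μM final) were applied 1 h at 37°C before 5 min stimulation with 100 ng/ml FGF-acidic. Phospho-ERK1/2 measured by MSD sandwich immunoassay; IC50 from 4-parameter fit of POC versus vehicle and control compound.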

In test [4] the target is T1, HEK-293 cells transfected with dox-inducible human wild type FGFR3. Briefly: FGFR3 pFGFR cell assay (ELISA). In kind it is cell-based. To be noted: HEK-293 dox-inducible FGFR3, 1 hour compound, 100 ng/ml FGF-acidic. Summed up:
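Doxycycline-induced (1 μg/ml) HEK-293 cells expressing wild-type human FGFR3, treated 1 h with compound (1:3 series, top final 5 μM), then stimulated 5 min with 100 ng/ml FGF-acidic. Phospho-FGFR3 measured by ELISA (total FGFR3 capture, phosphotyrosine detection, OD 450 nm); IC50 from 4-parameter fit of POC values.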
Background: An ELISA detects its analyte on a solid surface through an enzyme-linked reagent.

Sequence of recombinant human FGFR3 (amino acids R397-T806) (P22607 397-806): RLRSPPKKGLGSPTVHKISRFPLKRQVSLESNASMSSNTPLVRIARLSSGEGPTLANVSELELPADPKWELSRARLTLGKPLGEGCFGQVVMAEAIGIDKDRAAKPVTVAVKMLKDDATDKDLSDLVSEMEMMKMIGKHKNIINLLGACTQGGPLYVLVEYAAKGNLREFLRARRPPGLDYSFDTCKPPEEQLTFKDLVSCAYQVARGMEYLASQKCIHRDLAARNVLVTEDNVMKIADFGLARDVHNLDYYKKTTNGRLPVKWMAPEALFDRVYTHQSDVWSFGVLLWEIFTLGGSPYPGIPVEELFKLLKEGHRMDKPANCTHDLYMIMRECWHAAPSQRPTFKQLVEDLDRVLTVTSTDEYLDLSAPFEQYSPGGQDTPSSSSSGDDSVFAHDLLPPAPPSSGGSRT
T1 sequence (P22607 23-806): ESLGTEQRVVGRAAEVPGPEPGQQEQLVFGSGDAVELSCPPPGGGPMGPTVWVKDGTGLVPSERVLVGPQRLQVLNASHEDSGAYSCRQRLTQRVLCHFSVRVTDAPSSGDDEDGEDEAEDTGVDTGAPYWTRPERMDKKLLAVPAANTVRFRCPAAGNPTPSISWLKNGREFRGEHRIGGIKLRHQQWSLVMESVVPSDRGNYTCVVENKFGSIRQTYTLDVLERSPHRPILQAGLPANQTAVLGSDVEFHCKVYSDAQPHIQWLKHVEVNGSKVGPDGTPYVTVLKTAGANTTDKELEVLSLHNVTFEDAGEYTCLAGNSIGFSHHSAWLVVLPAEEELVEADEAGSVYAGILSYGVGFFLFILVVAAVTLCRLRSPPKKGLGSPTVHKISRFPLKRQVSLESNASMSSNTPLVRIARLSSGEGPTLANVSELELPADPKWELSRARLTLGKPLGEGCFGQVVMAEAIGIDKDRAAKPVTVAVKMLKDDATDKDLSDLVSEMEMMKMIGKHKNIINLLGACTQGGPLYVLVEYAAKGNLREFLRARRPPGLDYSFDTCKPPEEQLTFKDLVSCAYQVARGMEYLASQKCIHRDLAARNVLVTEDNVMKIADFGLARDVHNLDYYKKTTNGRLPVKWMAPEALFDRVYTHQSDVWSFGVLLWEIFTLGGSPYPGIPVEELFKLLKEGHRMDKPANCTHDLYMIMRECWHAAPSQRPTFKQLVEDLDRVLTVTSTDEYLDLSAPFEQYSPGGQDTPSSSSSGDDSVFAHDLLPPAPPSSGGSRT
Sequence of HEK-293 cells transfected with dox-inducible human wild type FGFR1 (P11362 22-822): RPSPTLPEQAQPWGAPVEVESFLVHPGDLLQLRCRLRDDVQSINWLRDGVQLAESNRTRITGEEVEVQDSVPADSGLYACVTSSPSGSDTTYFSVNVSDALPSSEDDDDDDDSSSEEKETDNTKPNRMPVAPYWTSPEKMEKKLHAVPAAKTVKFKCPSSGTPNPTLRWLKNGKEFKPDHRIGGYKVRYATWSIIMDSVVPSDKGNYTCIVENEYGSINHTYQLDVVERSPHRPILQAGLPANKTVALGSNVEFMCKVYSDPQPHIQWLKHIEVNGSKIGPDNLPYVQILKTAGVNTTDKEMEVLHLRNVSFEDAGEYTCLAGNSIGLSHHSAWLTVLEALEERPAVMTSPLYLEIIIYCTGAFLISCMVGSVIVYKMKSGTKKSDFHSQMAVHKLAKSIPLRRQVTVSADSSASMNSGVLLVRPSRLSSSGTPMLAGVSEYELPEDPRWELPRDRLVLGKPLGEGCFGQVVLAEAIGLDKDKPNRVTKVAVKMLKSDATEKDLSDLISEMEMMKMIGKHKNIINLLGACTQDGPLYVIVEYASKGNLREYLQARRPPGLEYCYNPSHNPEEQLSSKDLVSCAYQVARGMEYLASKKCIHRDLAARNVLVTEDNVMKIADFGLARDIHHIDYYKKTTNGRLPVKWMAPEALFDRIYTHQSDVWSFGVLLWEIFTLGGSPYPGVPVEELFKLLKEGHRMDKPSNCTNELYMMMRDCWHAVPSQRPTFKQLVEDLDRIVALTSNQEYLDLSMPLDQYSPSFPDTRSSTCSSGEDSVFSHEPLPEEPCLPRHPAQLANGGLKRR

Turning to `C=CC(=O)N1CC(CN2CC(n3ncc(-c4cc(OC)c5c(C#N)cnn5c4)c3C)C2)C1` [Example 92], the pIC50 is 6.69 in test [1], 7.41 in test [2] and 5.60 in test [3].

Consider `C=CC(=O)Nc1ccc(C(=O)N2CC[C@H](n3cc(-c4cc(OC)c5c(C#N)cnn5c4)cn3)C2)cc1C` [Example 70, (S)-N-(4-(3-(4-(3-cyano-4-methoxypyrazolo[1,5-a]pyridin-6-yl)-1H-pyrazol-1-yl)pyrrolidine-1-carbonyl)-2-methylphenyl)acrylamide], for which the pIC50 in test [2] is 8.22; in test [4] it was 6.98.

Take `C=CC(=O)Nc1cccc(C(=O)N2CC[C@@H](n3cc(-c4cc(OC)c5c(C#N)cnn5c4)cn3)C2)c1` [Example 56, (R)-N-(3-(3-(4-(3-cyano-4-methoxypyrazolo[1,5-a]pyridin-6-yl)-1H-pyrazol-1-yl)pyrrolidine-1-carbonyl)phenyl)acrylamide]: the pIC50 in test [2] is 8.00; in test [4], 6.74.

On to `C=CC(=O)N1CC(C(=O)N2CC[C@@H](n3cc(-c4cc(OC)c5c(C#N)cnn5c4)cn3)C2)C1` [Example 59, (R)-6-(1-(1-(1-acryloylazetidine-3-carbonyl)pyrrolidin-3-yl)-1H-pyrazol-4-yl)-4-methoxypyrazolo[1,5-a]pyridine-3-carbonitrile], for which the pIC50 was 7.80 in test [2] and 6.18 in test [4].

On to `C=CS(=O)(=O)N[C@H]1CC[C@H](C(=O)N2CCC(n3cc(-c4cc(OC)c5c(C#N)cnn5c4)cn3)CC2)C1` [Example 190, N-((1S,3S)-3-(4-(4-(3-cyano-4-methoxypyrazolo[1,5-a]pyridin-6-yl)-1H-pyrazol-1-yl)piperidine-1-carbonyl)cyclopentyl)-ethenesulfonamide], for which the results for the pIC50 in test [2] and in test [4] were 9.00 and 7.49, respectively.

In the case of `C=CC(=O)N1CC(C)(C(=O)N2CCC(n3cc(-c4cc(OC)c5c(C#N)cnn5c4)cn3)CC2)C1` [Example 38, 6-(1-(1-(1-acryloyl-3-methylazetidine-3-carbonyl)piperidin-4-yl)-1H-pyrazol-4-yl)-4-methoxypyrazolo[1,5-a]pyridine-3-carbonitrile], the pIC50 is 8.52 in test [2] and 8.05 in test [4].

For `C=CC(=O)Nc1ccc(C(=O)N2CC[C@H](n3cc(-c4cc(OC)c5c(C#N)cnn5c4)cn3)C2)c(C)c1` [Example 68, (S)-N-(4-(3-(4-(3-cyano-4-methoxypyrazolo[1,5-a]pyridin-6-yl)-1H-pyrazol-1-yl)pyrrolidine-1-carbonyl)-3-methylphenyl)acrylamide], the pIC50 in test [2] was 8.30; in test [4], 6.73.

As to `C=CC(=O)N1CC(C(=O)N2CC[C@H](n3cc(-c4cc(OC)c5c(C#N)cnn5c4)cn3)C2)C1` [Example 73, (S)-6-(1-(1-(1-acryloylazetidine-3-carbonyl)pyrrolidin-3-yl)-1H-pyrazol-4-yl)-4-methoxypyrazolo[1,5-a]pyridine-3-carbonitrile], the values for the pIC50 in test [2] and in test [4] were 8.40 and 6.50, respectively.

Regarding `C=CC(=O)Nc1ccc(C(=O)N2CC[C@H](n3cc(-c4cc(OC)c5c(C#N)cnn5c4)cn3)C2)cc1OC` [Example 71, (S)-N-(4-(3-(4-(3-cyano-4-methoxypyrazolo[1,5-a]pyridin-6-yl)-1H-pyrazol-1-yl)pyrrolidine-1-carbonyl)-2-methoxyphenyl)acryla72 mide], the values for the pIC50 in test [2] and in test [4] were 8.22 and 7.46, respectively.

On to `C=CC(=O)N1CC(C)(CN2CC(n3ncc(-c4cc(OC)c5c(C#N)cnn5c4)c3C)C2)C1` [Example 93, 6-(1-(1-((1-acryloyl-3-methylazetidin-3-yl)methyl)azetidin-3-yl)-5-methyl-1H-pyrazol-4-yl)-4-methoxypyrazolo[1,5-a]pyridine-3-carbonitrile], for which the pIC50 was 6.76 in test [1], 7.39 in test [2] and 5.72 in test [3].

As a reminder, the pIC50 is the IC50 on a negative log10 scale, so that one unit is a factor of ten.
